According to US8268635B2, “Methods of identifying agents that selectively activate p38 and/or NKkB signaling” (priority 2006, dated 2012):
Where no end group is shown, it is not given here.

Key:
ERK1/ERK2 = ERK1/ERK2 activation in neutrophils in suspension; type: cell-based, human; settings: TNF, TNF70-80 15 min; PMA 100 nM 5 min
Method: (§1) The cells were lysed and the lysate assessed by western blot analysis for the level of dual-phosphorylated ERK1/ERK2 (top panel) and ERK2 protein (bottom panel). […] The level of myelin basic protein phosphorylation was quantitated by an Instant Imager.
Neutrophils were prepared from peripheral blood of healthy donors by a rapid single-step technique (Kumaratilake, L. M., Rathjen, D. A., Mack, P., Widmer, F., Prasertsiriroj, V., and Ferrante, A. (1995) J. Clin. Invest. 95: 2315-2323) using Hypaque-Ficoll and according to the institution's guidelines on human ethics. […]
KHS (hereon referred to as “GCKR”) activity was assayed as described previously using myelin basic protein as a substrate (Shi, C. S., Leonardi, A., Kyriakis, J., Siebenlist, U., and Kerhl, J. H. (1999) J. Immunol. 163: 3279-3285). ASK-1 activation was determined in immunoprecipitates of ASK-1 by autophosphorylation (Kyriakis, J. M., and Auruch, J. (2001) Physiol. Rev. 81: 807-869). p38 and ERK activities were determined as described using myelin basic protein as a substrate (Hii, C. S., Huang, Z. H., Bilney, A., Costabile, M., Murray, A. W., Rathjen, D. A., Der, C. J., and Ferrante, A. (1998) J. Biol. Chem. 273: 19277-19282). […]

neutrophils = test: Neutrophil superoxide production, lucigenin chemiluminescence assay; type: cell-based, human
Method: Neutrophils were pre-treated with varying concentrations of SB203580 for 30 min and then exposed to 10 μM TNF70-80. The lucigenin enhanced chemiluminescence produced by the cells was measured in a luminometer. The peak initial rate of chemiluminescence produced is presented as the mean±sem of six experiments. The response in the presence of the inhibitor is expressed as a % of the control response.
Neutrophil superoxide production was measured as the chemiluminescence generated by the reduction of lucigenin, essentially as described previously (Kumaratilake, L. M., Rathjen, D. A., Mack, P., Widmer, F., Prasertsiriroj, V., and Ferrante, A. (1995) J. Clin. Invest. 95: 2315-2323). Briefly, to 1×10^6 neutrophils in 400 μl of HBSS was added 100 μl of stimulus and 500 μl of 250 μg/ml of lucigenin. The chemiluminescence was measured in a luminometer (Berthold Technologies, Bad Wildbad, Germany) over a 20 min period and the data imported into Microsoft Excel (Redmond, Wash.).
The cells were placed in a water-jacketed luminometer chamber (37° C.) (Autolumat Plus Model LB 953, Berthold Technologies, Bundoora, Australia) and the resulting light output recorded in millivolts (mV) at 10 second intervals. The data was analysed with Multiuser software (Berthold Tubemaster, Bundoora, Australia). The results are expressed as peak superoxide produced.
Various concentrations of TNFR1 fragment or diluent were added to neutrophils (106 in 100 μl HBSS) and incubated at 37° C. for 30 min 5% CO2 in air. After incubation 500 μl of lucigenin (250 μM, final), 100 μl of TNF70-80 (100 μg) were added and the final volume was adjusted to 1 ml.
Superoxide production by human neutrophils was measured by the reduction of the fluorescent lucigenin, (9,9′-bis(N-methyl-acridinium nitrate) (Sigma Chemical Company). This provides a direct and specific measure of agonist-induced superoxide production. Lucigenin-dependant chemiluminescence was measured as described previously Gyllenhannar H. (1987) J. Immunol. Methods 97:209-213. Briefly, 50 μl of 100 mg/ml of peptide or diluent and 250 ml of lucigenin was added to neutrophils (5×10^5 in 50 μl HBSS). The cells were placed in a water-jacketed luminometer chamber (37° C.) (Autolumat Plus Model LB 953, Berthold Technologies, Bundoora, Australia) and the resulting light output recorded in millivolts (mV) at 10 second intervals. The data was analysed with Multi-user software (Berthold Tubemaster, Bundoora, Australia).
Data are presented as mean±SEM of 3 experiments.

JNK = JNK phosphorylation in HL60 cells (western blot); type: cell-based; settings: 15 min; TNF 100 U/ml, anisomycin 2.5 μg/ml
p38 [1] = test: p38 kinase activity in human neutrophils; type: cell-based
Method: as §1
Neutrophils were prepared from peripheral blood of healthy donors by a rapid single-step technique (Kumaratilake, L. M., Rathjen, D. A., Mack, P., Widmer, F., Prasertsiriroj, V., and Ferrante, A. (1995) J. Clin. Invest. 95: 2315-2323) using Hypaque-Ficoll and according to the institution's guidelines on human ethics. […] These were either used as cells in suspension or as adhered neutrophils by adding the cells to plasma coated plates as previously described (Powell, W., Gravel, S., Halwani, F., Hii, C. S., Huang, Z. H., Tan, A. M., and Ferrante, A. (1997) J. Immunol. 159: 2952-2959).
(§2) KHS (hereon referred to as “GCKR”) activity was assayed as described previously using myelin basic protein as a substrate (Shi, C. S., Leonardi, A., Kyriakis, J., Siebenlist, U., and Kerhl, J. H. (1999) J. Immunol. 163: 3279-3285). ASK-1 activation was determined in immunoprecipitates of ASK-1 by autophosphorylation (Kyriakis, J. M., and Auruch, J. (2001) Physiol. Rev. 81: 807-869). p38 and ERK activities were determined as described using myelin basic protein as a substrate (Hii, C. S., Huang, Z. H., Bilney, A., Costabile, M., Murray, A. W., Rathjen, D. A., Der, C. J., and Ferrante, A. (1998) J. Biol. Chem. 273: 19277-19282). […] A solid phase assay using glutathione-S-transferase (GST)-conjugated-jun (1-79) was employed to assay JNK activity (Hii, C. S., Huang, Z. H., Bilney, A., Costabile, M., Murray, A. W., Rathjen, D. A., Der, C. J., and Ferrante, A. (1998) J. Biol. Chem. 273: 19277-19282). Phosphorylated ASK-1, myelin basic protein and GST-jun (1-79) were fractionated on 8, 16 and 12% SDS polyacrylamide gels, respectively, and the bands were detected and radioactivity determined using an Instant Imager (Packard Instruments, Canberra, Australia).
(§3) The level of myelin basic protein phosphorylation was quantitated by an Instant Imager.

p38 [2] = test: p38 activity in HUVEC (immunoprecipitation, myelin basic protein substrate); type: cell-based, human; settings: 5 min; TNF 1,000 U/ml, peptides 10 μM
Method: as §3, §2

p38 [3] = test: p38 activation in 70Z/3 cells transfected with hTNFR1 constructs; type: cell-based, mouse; settings: 5 min; TNF 1000 U/ml, peptides 10 μM
Method: The cells were then lysed, protein contents quantified and subjected to p38 kinase assay by Western blot. The results are presented as the mean+−sem of 3 experiments.
The cells were maintained in RPMI-1640 medium with 4.5 g/L glucose, 2 mM L-glutamine, […] 2-mercaptoethanol and 10% FCS in an atmosphere of 95% air and 5% CO2. Cells were plated onto 10 cm plates at 4×10^7 cells in 15 ml culture medium. Before performing transient transfection, plasmid DNA (hTNFR1), kindly provided by Dr M. Kronke, Institute of Medical Microbiology and Hygiene, Medical Center University of Cologne, Koln, Germany (Adam, D., Wiegmann, K., Adam-Klages, S., Ruff A., and Kronke, M. (1996) J. Biol. Chem. 271: 14617-22), (20 μg in 1 ml of RPMI1640) was mixed with LipofectAMINE 2000 (Invitrogen) (60 μl in 1 ml of RPMI) and the mixture were left at room temperature for 20 min. The mixture was directly added to the cells and incubated for 24 h. The cells were washed twice with HBSS before use.

Q: CCCCCCCCCCCCCC(=O)O[C@@H]1[C@@H](C)[C@@]2(O)[C@@H](C=C(CO)C[C@]3(O)C(=O)C(C)=C[C@@H]23)[C@@H]2C(C)(C)[C@]12OC(C)=O [PMA, reference compound] was tested. Which “activity/dual phosphorylation of ERK in neutrophils in suspension” value (ERK1/ERK2) did it give?
A: Its value is “increased the dual phosphorylation of ERK1/ERK2”.

Q: How did the “effect on TNF70-80 stimulated neutrophil chemiluminescence response” value (neutrophils; pre-incubated with inhibitor 30 min, then 10 μM TNF70-80) turn out when C[S+]([O-])c1ccc(-c2nc(-c3ccncc3)c(-c3ccc(F)cc3)[nH]2)cc1 (stereo not drawn) [SB203580, reference compound] was run?
A: Its value is “significantly reduced”.

Q: How did the “JNK phosphorylation in HL60 cells” value (JNK) turn out when COc1ccc(C[C@H]2NC[C@H](O)[C@H]2OC(C)=O)cc1 [anisomycin, reference compound] was run?
A: The value was “increased JNK phosphorylation”.

Q: With EDSGTT [Peptide M4-3] as the molecule, how does the “effect on TNF (mononuclear leukocyte fluid)-induced p38 activation in human neutrophils” value (p38 [1]; peptide pre-incubated with TNF medium (≈0.12 ng/ml TNF) 20 min, neutrophils 30 min) read?
A: Its value is “inhibition of TNF (mononuclear leukocyte fluid)-induced p38 activation”.

Q: For “H-Gly-Gly-Asp-Pro-Gly-Ile-Val-Thr-His-Ser-OH (H-GGDPGIVTHS-OH) [control peptide 205, control peptide, reference compound]”, which “activity of p38 in HUVEC” value (p38 [2]) is on record?
A: The value was “failed to stimulate p38”.

Q: And the “activity of p38 in neutrophils in suspension” value (p38 [1]; 5 min, TNF 100 or 1000 U/ml, TNF70-80 10-50 μM)?
A: Its value is “did not activate p38”.

Q: What about the “p38 activation in 70Z/3 cells transfected with wild type hTNFR1” value (p38 [3]) of the same molecule?
A: The value was “failed to activate p38”.

Q: Which “effect on TNF-induced superoxide generation of neutrophils” value (neutrophils; peptide mixed with TNF at 37° C. for 20 min, then added to neutrophils) does the source give for “H-Gly-Thr-Thr-OH (listed as Homo sapiens) [Peptide M4-2]” here?
A: Its value is “Inhibits TNF-Induced Superoxide Generation”.

Q: “His6-Leu-Lys-Pro-Gly-Thr-Thr-OH (HHHHHHLKPGTT-OH; listed as Homo sapiens) [Peptide M4]” was tested. Which “effect on TNF70-80-induced superoxide production in neutrophils” value (neutrophils; TNFR1 fragment pre-incubated with neutrophils 30 min, then TNF70-80 (100 μg)) did it give?
A: Its value is “can block the biological activity of the TNF70-80”.
